The molecules below were run on mature cyclic rats (assay: Ovulation inhibition in rat (in vivo progestagenic activity)). Settings: 96 h, minimal active dose: level at which average number of ova is reduced by 60% relative to placebo, oral administration for 1 complete cycle (4 days), read-out: MAD.
Procedure: Ovulation inhibition after oral administration of the compounds of the invention was studied in mature cyclic rats. Animals were treated with test compound (oral administration) for 1 complete cycle (4 days, from oestrus to pro-oestrus) and the number of ova in the oviduct was microscopically assessed at autopsy in the morning of the next (expected) oestrus. The average number of ova per rat was calculated; the minimal active dose (MAD) is defined as the level at which the average number of ova is reduced by 60% relative to placebo-treated animals.

Row | SMILES | minimal effective dose
1 | N#Cc1cc2c(cc1F)Oc1ccccc1[C@@H]1[C@@H](NC(=O)C(F)(F)F)CCCN21 (single isomer, unassigned) [Example 2, (-)-(cis)-N-(7-cyano-8-fluoro-1,3,4,14b-tetrahydro-2H-dibenzo[b,f]pyrido[1,2-d] [1,4]oxazepin-1-yl)-2,2,2-trifluoroacetamide] | 0.014 mg/kg
2 | CC(=O)N[C@H]1CCCN2c3c(cc(F)c(C#N)c3Cl)Oc3cccc(F)c3[C@H]12 (single isomer, unassigned) [Example 6, (-)-(cis)-N-(6-chloro-7-cyano-8,14-difluoro-1,3,4,14b-tetrahydro-2H-dibenzo[b,f]pyrido[1,2-d][1,4]oxazepin-1-yl)acetamide] | < 0.02 mg/kg
3 | N#Cc1c(F)cc2c(c1Cl)N1CCC[C@H](NC(=O)C(F)(F)F)[C@H]1c1cccc(F)c1O2 (single isomer, unassigned) [Example 7, (-)-(cis)-N-(6-chIoro-7-cyano-8,11-difluoro-1,3,4,14b-tetrahydro-2H-dibenzo[b,f]pyrido[1,2-d][1,4]oxazepin-1-yl)-2,2,2-trifluoroacetamide] | 0.025 mg/kg
4 | C=Cc1cccc2c1N1CCC[C@H](NC(=O)C(F)(F)F)[C@H]1c1ccccc1O2 (single isomer, unassigned) [eutomer of example 54 of WO03/084963, reference compound] | > 4 mg/kg
5 | N#Cc1c(F)cc2c(c1Cl)N1CCC[C@@H](NC(=O)C(F)(F)F)[C@@H]1c1ccccc1O2 [Example 3, (-)-(cis)-N-[6-chloro-7-cyano-8-fluoro-1,3,4,14b-tetrahydro-2H-dibenzo[b,f]pyrido[1,2-d][1,4]oxazepin-1-yl]-2,2,2-trifluoroacetamide] | 0.08 mg/kg
6 | N#Cc1c(F)cc2c(c1C#N)N1CCC[C@@H](NC(=O)C(F)(F)F)[C@@H]1c1ccccc1O2 [Example 4, (-)-(cis)-N-(6,7-dicyano-8-fluoro-1,3,4,14b-tetrahydro-2H-dibenzo[b,f]pyrido [1,2-d][1,4]oxazepin-1-yl)-2,2,2-trifluoroacetamide] | 0.02 mg/kg
7 | N#Cc1c(F)cc2c(c1Cl)N1CCC[C@@H](NC(=O)C(F)(F)F)[C@@H]1c1ccc(F)cc1O2 [Example 5, (-)-(cis)-N-(6-chloro-7-cyano-8,12-difluoro-1,3,4,14b-tetrahydro-2H-dibenzo[b,f]pyrido[1,2-d][1,4]oxazepin-1-yl)-2,2,2-trifluoroacetamide] | ≤ 0.025 mg/kg
8 | N#Cc1cc2c(cc1F)Oc1cccc(F)c1[C@H]1[C@H](NC(=O)C(F)(F)F)CCCN21 [Example 8, (-)-(cis)-N-(7-cyano-8,14-difluoro-1,3,4,14b-tetrahydro-2H-dibenzo[b,f]pyrido [1,2-d][1,4]oxazepin-1-yl)-2,2,2-trifluoroacetamide] | 0.01 mg/kg
9 | N#Cc1c(F)cc2c(c1Cl)N1CCC[C@@H](NC(=O)C(F)(F)F)[C@@H]1c1c(F)cccc1O2 [Example 9, (-)-(cis)-N-(6-chloro-7-cyano-8,14-difluoro-1,3,4,14b-tetrahydro-2H-dibenzo [b,f]pyrido[1,2-d][1,4]oxazepin-1-yl)-2,2,2-trifluoroacetamide] | < 0.02 mg/kg

Reference: patent EP2066677B1, “PYRIDOOXAZEPINE PROGESTERON RECEPTOR MODULATORS” (N.V. Organon, priority 2006, dated 2008)
